We go through 17 compounds from patent US20230365542A1, “Selective Agonists of 5-HT2A Receptor and Methods of Use” (Yale University, priority 2020, published 2023).

Where two headings read alike, the source gives them in different places.

The target of experiment [1] is T1, 5-HT2AR (Homo sapiens, UniProt P28223).
T1 construct: expressed in transfected cells; host or cells: Flp-In 293 T-Rex (tetracycline inducible)
Description: Calcium flux assay (FLIPR, Fluo-4), 5-HT2AR stable cell line. In kind it is cell-based. The following applies: for 5-HT2AR Rmax ± S.E.M: value in parentheses. On the technique in general: Calcium flux is commonly read through the fluorescence of an indicator in the cells.
Description: Stable cell lines for 5-HT2AR, 5-HT2BR and 5-HT2CR generated using the Flp-In 293 T-Rex Tetracycline inducible system (Invitrogen). Tetracycline-induced cells were seeded in 384-well poly-L-lysine plates at a density of 10,000 cells/well in DMEM containing 1% dialyzed FBS at least 16-24 hr before the calcium flux assay. On the day of the assay, the cells were incubated (20 ul/well) for 1 hr at 37° C. with Fluo-4 Direct dye (Invitrogen) reconstituted in FLIPR buffer (1×HBSS, 2.5 mM probenecid, and 20 mM HEPES, pH 7.4). After dye loading, cells were placed in a FLIPR^TETRA fluorescence imaging plate reader (Molecular Dynamics). Drug dilutions were prepared at 3× final concentration in drug buffer (1×HBSS, 20 mM HEPES, 0.1% BSA, 0.01% ascorbic acid, pH 7.4) and aliquoted into 384-well plates and placed in the FLIPR^TETRA for drug stimulation. The fluidics module and plate reader of the FLIPR^TETRA were programmed to read baseline fluorescence for 10s (1 read/s), then 10 ul of drug/well was added and read for 5 min (1 read/s). Fluorescence in each well was normalized to the average of the first 10 reads (i.e., baseline fluorescence). Then, the maximum-fold increase, which occurred within the first 60 s after drug addition, was determined and fold over baseline was plotted as a function of drug concentration. Data were normalized to % 5-HT stimulation and analyzed using “log(agonist) vs. response” in GraphPad Prism 9.0.

Experiment [2] deals with T2, 5-HT2BR (Homo sapiens, UniProt P41595).
T2 construct: expressed in transfected cells; host or cells: Flp-In 293 T-Rex (tetracycline inducible)
Briefly: Calcium flux assay (FLIPR, Fluo-4), 5-HT2BR stable cell line. It is filed as cell-based. Conditions: for 5-HT2BR Rmax ± S.E.M: value in parentheses. On the procedure: Stable cell lines for 5-HT2AR, 5-HT2BR and 5-HT2CR generated using the Flp-In 293 T-Rex Tetracycline inducible system (Invitrogen). Tetracycline-induced cells were seeded in 384-well poly-L-lysine plates at a density of 10,000 cells/well in DMEM containing 1% dialyzed FBS at least 16-24 hr before the calcium flux assay. On the day of the assay, the cells were incubated (20 ul/well) for 1 hr at 37° C. with Fluo-4 Direct dye (Invitrogen) reconstituted in FLIPR buffer (1×HBSS, 2.5 mM probenecid, and 20 mM HEPES, pH 7.4). After dye loading, cells were placed in a FLIPR^TETRA fluorescence imaging plate reader ([…]). Drug dilutions were prepared at 3× final concentration in drug buffer (1×HBSS, 20 mM HEPES, 0.1% BSA, 0.01% ascorbic acid, pH 7.4) and aliquoted into 384-well plates and placed in the FLIPR^TETRA for drug stimulation. The fluidics module and plate reader of the FLIPR^TETRA were programmed to read baseline fluorescence for 10s (1 read/s), then 10 ul of drug/well was added and read for 5 min (1 read/s). Fluorescence in each well was normalized to the average of the first 10 reads (i.e., baseline fluorescence). Then, the maximum-fold increase, which occurred within the first 60 s after drug addition, was determined and fold over baseline was plotted as a function of drug concentration. Data were normalized to % 5-HT stimulation and analyzed using “log(agonist) vs. response” in GraphPad Prism 9.0.

Experiment [3] concerns the target T2, 5-HT2BR. Briefly: 5-HT2BR binding affinity (Ki), Table 8.
Experiment [4] has as its target T1, 5-HT2AR. Description: 5-HT2AR binding affinity (Ki), Table 8.
Experiment [5] concerns the target T3, 5-HT2CR (Homo sapiens, UniProt P28335).
T3 sequence (P28335 33-458): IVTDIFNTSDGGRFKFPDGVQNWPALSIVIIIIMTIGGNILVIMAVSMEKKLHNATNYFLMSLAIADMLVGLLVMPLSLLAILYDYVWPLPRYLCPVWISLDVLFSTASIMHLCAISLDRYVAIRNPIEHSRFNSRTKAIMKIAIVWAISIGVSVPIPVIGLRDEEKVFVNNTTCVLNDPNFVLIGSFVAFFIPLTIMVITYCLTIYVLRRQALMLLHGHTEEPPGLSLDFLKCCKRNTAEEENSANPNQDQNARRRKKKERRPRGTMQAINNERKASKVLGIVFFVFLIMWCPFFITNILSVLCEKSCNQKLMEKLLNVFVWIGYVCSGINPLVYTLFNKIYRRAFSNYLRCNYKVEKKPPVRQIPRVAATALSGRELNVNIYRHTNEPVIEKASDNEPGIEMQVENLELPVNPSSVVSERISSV
Briefly: 5-HT2CR binding affinity (Ki), Table 8. Conditions: read-out: 5-HT2CR Ki.

Where [6] appears, read: bracketed value below Ki, read-out: 5-HT2BR pKi ± S.E.M (converted).
Where [7] appears, read: bracketed value below Ki, read-out: 5-HT2AR pKi ± S.E.M (converted).
Setting [8] is: bracketed value below EC50, read-out: 5-HT2BR pEC50 ± S.E.M (converted).

T2 sequence (P41595 whole entry): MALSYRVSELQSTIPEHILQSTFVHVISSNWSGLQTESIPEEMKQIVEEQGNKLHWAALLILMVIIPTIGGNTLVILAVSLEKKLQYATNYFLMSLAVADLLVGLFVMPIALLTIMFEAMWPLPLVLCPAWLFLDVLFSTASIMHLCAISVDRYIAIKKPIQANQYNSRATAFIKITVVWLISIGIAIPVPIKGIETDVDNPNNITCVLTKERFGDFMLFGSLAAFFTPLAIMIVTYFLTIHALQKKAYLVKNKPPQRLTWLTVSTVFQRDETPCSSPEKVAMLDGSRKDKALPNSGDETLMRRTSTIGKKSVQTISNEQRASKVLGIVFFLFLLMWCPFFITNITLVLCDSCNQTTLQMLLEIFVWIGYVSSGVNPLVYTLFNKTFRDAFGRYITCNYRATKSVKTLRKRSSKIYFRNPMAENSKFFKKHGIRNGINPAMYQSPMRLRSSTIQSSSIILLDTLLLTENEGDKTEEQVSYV
T1 sequence (P28223 whole entry): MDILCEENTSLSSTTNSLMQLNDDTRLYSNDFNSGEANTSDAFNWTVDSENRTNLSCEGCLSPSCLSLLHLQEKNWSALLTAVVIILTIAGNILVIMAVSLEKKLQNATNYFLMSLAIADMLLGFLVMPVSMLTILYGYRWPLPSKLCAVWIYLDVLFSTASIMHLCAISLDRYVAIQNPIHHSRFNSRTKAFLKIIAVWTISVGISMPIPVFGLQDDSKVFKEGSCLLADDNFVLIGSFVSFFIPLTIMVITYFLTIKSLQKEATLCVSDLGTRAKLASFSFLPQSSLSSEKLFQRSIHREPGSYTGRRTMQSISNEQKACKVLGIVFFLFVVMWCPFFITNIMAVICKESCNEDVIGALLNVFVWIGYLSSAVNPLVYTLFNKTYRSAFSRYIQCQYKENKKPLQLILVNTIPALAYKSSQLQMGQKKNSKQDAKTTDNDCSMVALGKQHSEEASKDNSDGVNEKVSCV

As to `CCCCCN1CC(c2cnn(C)c2)=CC(C)C1` (racemic) [Compound 3, 3-Methyl-5-(1-methyl-1H-pyrazol-4-yl)-1-pentyl-1,2,3,6-tetrahydropyridine], in experiment [1] (read-out: 5-HT2AR EC50), the EC50 was more than 10000 nM. Further, the “5-HT2BR EC50” value in experiment [2] was “antagonist”. The Ki in experiment [3] (read-out: 5-HT2BR Ki) came out at 1480 nM.
`CCCCN1CC(c2cncc(Cl)c2)=C[C@@H](C)C1` [Compound 11, 1-butyl-5′-chloro-5-methyl-1,2,5,6-tetrahydro-3,3′-bipyridine]: the EC50 in experiment [1] (read-out: 5-HT2AR EC50) came out at 4240 nM. Besides, the “5-HT2AR Rmax ± S.E.M” value in experiment [1] is “(25.0%”. Besides, the “5-HT2BR EC50” value in experiment [2] is recorded as “antagonist”. Moreover, the Ki in experiment [4] (read-out: 5-HT2AR Ki) was more than 10 µM; in experiment [3] (setting [6]), 372 nM; in experiment [5], more than 10 µM.
With `C[C@H]1C=C(c2c[nH]c3ncccc23)CN(CCCN(C)C)C1` [compound 32, (S)-N,N-dimethyl-3-(3-methyl-5-(1H-pyrrolo[2,3-b]pyridin-3-yl)-3,6-dihydropyridin-1(2H)-yl)propan-1-amine], in experiment [1], the “5-HT2AR EC50” value is recorded as “antagonist”. Besides, the “5-HT2BR EC50” value in experiment [2] was “antagonist”. Besides, the Ki in experiment [4] (read-out: 5-HT2AR Ki) was more than 10 µM; in experiment [3] (read-out: 5-HT2BR Ki), 9720 nM; in experiment [5] it was more than 10 µM.
Turning to `C[C@@H]1C=C(c2c[nH]c3ncccc23)CN(C2CC2)C1` [compound 29, (R)-3-(1-cyclopropyl-5-methyl-1,2,5,6-tetrahydropyridin-3-yl)-1H-pyrrolo[2,3-b]pyridine], the EC50 in experiment [1] (read-out: 5-HT2AR EC50) turned out to be 1360 nM; in experiment [2] (read-out: 5-HT2BR EC50), 5150 nM. In addition, the “5-HT2AR Rmax ± S.E.M” value in experiment [1] is reported as “(63.0%”. Besides, the “5-HT2BR Rmax ± S.E.M” value in experiment [2] is “(74.7%”. Besides, the Ki in experiment [4] (read-out: 5-HT2AR Ki) was 6.14 µM; in experiment [3] (read-out: 5-HT2BR Ki), 1660 nM; in experiment [5], more than 10 µM.
Consider `C[C@H]1C=C(c2cncc(Cl)c2)CN(C)C1` (stereo in doubt) [Compound 18, 5′-chloro-1,5-dimethyl-1,2,5,6-tetrahydro-3,3′-bipyridine], for which the EC50 in experiment [1] (read-out: 5-HT2AR EC50) was 870 nM. The “5-HT2AR Rmax ± S.E.M” value in experiment [1] was “(13.7%”. Moreover, the “5-HT2BR EC50” value in experiment [2] is listed as “antagonist”. Further, the Ki in experiment [4] (setting [7]) is 3.16 µM; in experiment [4] (read-out: 5-HT2AR Ki), 3.21 µM; in experiment [3] (setting [6]), 138 nM; in experiment [5], more than 10 µM.
On to `C[C@H]1C=C(c2c[nH]c3ncccc23)CN(Cc2cnco2)C1` [compound 48, (S)-5-((3-methyl-5-(1H-pyrrolo[2,3-b]pyridin-3-yl)-3,6-dihydropyridin-1(2H)-yl)methyl)oxazole], for which the “5-HT2AR EC50” value in experiment [1] is given as “antagonist”. Also, the EC50 in experiment [2] (read-out: 5-HT2BR EC50) was 8860 nM. Also, the “5-HT2BR Rmax ± S.E.M” value in experiment [2] is reported as “(48.8%”. Further, the Ki in experiment [4] (read-out: 5-HT2AR Ki) is more than 10 µM; in experiment [3] (read-out: 5-HT2BR Ki) it was 8010 nM; in experiment [5] it was more than 10 µM.
As for `C[C@@H]1C=C(c2c[nH]c3ncccc23)CN(CCCN(C)C)C1` [compound 31, (R)-N,N-dimethyl-3-(3-methyl-5-(1H-pyrrolo[2,3-b]pyridin-3-yl)-3,6-dihydropyrridin-1(2H)-yl)propan-1-amine], in experiment [1], the “5-HT2AR EC50” value is listed as “antagonist”. For the same compound, the “5-HT2BR EC50” value in experiment [2] is reported as “antagonist”. Moreover, the Ki in experiment [4] (read-out: 5-HT2AR Ki) was more than 10 µM; in experiment [3] (read-out: 5-HT2BR Ki), more than 10000 nM; in experiment [5], more than 10 µM.
For the compound `CCCCN1CC(c2cncc(C)c2)=C[C@@H](C)C1` [Compound 13, 1-Butyl-5,5′-dimethyl-1,2,5,6-tetrahydro-3,3′-bipyridine], in experiment [1] (read-out: 5-HT2AR EC50), the EC50 was more than 10000 nM. Further, the “5-HT2BR EC50” value in experiment [2] is on record as “antagonist”. The values for the Ki in experiment [4] (read-out: 5-HT2AR Ki), in experiment [3] (read-out: 5-HT2BR Ki) and in experiment [5] were more than 10 µM, 580 nM and more than 10 µM, respectively.
As to `C[C@@H]1C=C(c2c[nH]c3ncccc23)CN(CCCc2cnn(C)c2)C1` [compound 43, (R)-3-(5-methyl-1-(3-(1-methyl-1H-pyrazol-4-yl)propyl)-1,2,5,6-tetrahydropyridin-3-yl)-1H-pyrrolo[2,3-b]pyridine], the “5-HT2AR EC50” value in experiment [1] is “antagonist”. In addition, the EC50 in experiment [2] (read-out: 5-HT2BR EC50) was determined as 790 nM. In addition, the “5-HT2BR Rmax ± S.E.M” value in experiment [2] is “(39.5%”. Moreover, the Ki was 0.661 µM in experiment [4] (setting [7]); 0.67 µM in experiment [4] (read-out: 5-HT2AR Ki); 692 nM in experiment [3] (setting [6]); 700 nM in experiment [3] (read-out: 5-HT2BR Ki); more than 10 µM in experiment [5].
With `CCCCN1CC(c2cncc(C)c2)=C[C@H](C)C1` (stereo in doubt) [Compound 14, 1-Butyl-5,5′-dimethyl-1,2,5,6-tetrahydro-3,3′-bipyridine], the EC50 in experiment [1] (read-out: 5-HT2AR EC50) is 1830 nM; in experiment [2] (setting [8]), 28.2 nM. Besides, the “5-HT2AR Rmax ± S.E.M” value in experiment [1] is listed as “(57.3%”. Also, in experiment [2], the “5-HT2BR Rmax ± S.E.M” value is “(71.7%”. Also, the Ki in experiment [4] (read-out: 5-HT2AR Ki) was more than 10 µM; in experiment [3] (setting [6]), 30.9 nM; in experiment [3] (read-out: 5-HT2BR Ki), 30 nM; in experiment [5], more than 10 µM.
Take `Cc1cncc(C2=C[C@@H](C)CN(CC3(O)COC3)C2)c1` [Compound 5, 3-((5,5′-Dimethyl-5,6-dihydro-[3,3′-bipyridin]-1(2H)-yl)methyl)oxetan-3-ol]: in experiment [2], the “5-HT2BR EC50” value is recorded as “antagonist”. Besides, the Ki in experiment [4] (read-out: 5-HT2AR Ki) was more than 10 µM; in experiment [3] (setting [6]), 3240 nM; in experiment [5], more than 10 µM.
Turning to `C[C@H]1C=C(c2c[nH]c3ncccc23)CNC1` [compound 39, (S)-3-(5-methyl-1,2,5,6-tetrahydropyridin-3-yl)-1H-pyrrolo[2,3-b]pyridine], the EC50 in experiment [1] (bracketed value below EC50, read-out: 5-HT2AR pEC50 ± S.E.M (converted)) was 513 nM; in experiment [1] (read-out: 5-HT2AR EC50), 520 nM; in experiment [2] (read-out: 5-HT2BR EC50) it was 1230 nM. Further, the “5-HT2AR Rmax ± S.E.M” value in experiment [1] is “(14.0%”. The “5-HT2BR Rmax ± S.E.M” value in experiment [2] is recorded as “(26.8%”. Besides, in experiment [3] (read-out: 5-HT2BR Ki), the Ki was determined as 1810 nM.
Consider `CCc1cncn1CCN1CC(c2cccn2C)=CC(C)C1` (racemic) [Compound 2, 1-(2-(5-Ethyl-1H-imidazol-1-yl)ethyl)-3-methyl-5-(1-methyl-1H-pyrrol-2-yl)-1,2,3,6-tetrahydropyridine], for which, in experiment [1], the “5-HT2AR EC50” value is given as “antagonist”. In experiment [2] (read-out: 5-HT2BR EC50), the EC50 worked out at 2980 nM. In addition, the “5-HT2BR Rmax ± S.E.M” value in experiment [2] is on record as 56.3%. For the same compound, the values for the Ki in experiment [4] (read-out: 5-HT2AR Ki) and in experiment [3] (read-out: 5-HT2BR Ki) were 6.23 µM and 2670 nM, respectively.
As for `CC1C=C(c2cnn(C)c2)CN(CC2(C)COC2)C1` (racemic) [Compound 1, 3-Methyl-5-(1-methyl-1H-pyrazol-4-yl)-1-((3-methyloxetan-3-yl)methyl)-1,2,3,6-tetrahydropyridine], in experiment [2] (read-out: 5-HT2BR EC50), the EC50 is 1940 nM. Also, the “5-HT2BR Rmax ± S.E.M” value in experiment [2] is 48.9%. The Ki in experiment [3] (read-out: 5-HT2BR Ki) stood at 3880 nM.
Regarding `Cc1cncc(C2=CC(C)CN(CC3(O)COC3)C2)c1` (racemic) [Compound 4, 3-((5,5′-Dimethyl-5,6-dihydro-[3,3′-bipyridin]-1(2H)-yl)methyl)oxetan-3-ol], the “5-HT2BR EC50” value in experiment [2] is “antagonist”. Besides, in experiment [3] (read-out: 5-HT2BR Ki), the Ki came to 670 nM.
In the case of `Cc1cncc(C2=C[C@H](C)CN(CC3(O)COC3)C2)c1` (stereo in doubt) [Compound 6, 3-((5,5′-Dimethyl-5,6-dihydro-[3,3′-bipyridin]-1(2H)-yl)methyl)oxetan-3-ol], the EC50 in experiment [2] (setting [8]) was 115 nM; in experiment [2] (read-out: 5-HT2BR EC50), 120 nM. The “5-HT2BR Rmax ± S.E.M” value in experiment [2] was “(16.0%”. Also, the Ki in experiment [4] (read-out: 5-HT2AR Ki) is more than 10 µM; in experiment [3] (setting [6]), 245 nM; in experiment [5], more than 10 µM.
Regarding `C[C@H]1C=C(c2cncc(Cl)c2)CN(CC2(O)COC2)C1` [Compound 8, 3-((5′-Chloro-5-methyl-5,6-dihydro-[3,3′-bipyridin]-1(2H)-yl)methyl)oxetan-3-ol], the EC50 in experiment [2] (setting [8]) is 126 nM. Also, in experiment [2], the “5-HT2BR Rmax ± S.E.M” value is listed as “(20.4%”. The Ki in experiment [4] (read-out: 5-HT2AR Ki) was more than 10 µM; in experiment [3] (setting [6]), 79.4 nM; in experiment [5] it was more than 10 µM.
